In patent publication US8685970B2, “Quinolines and related analogs as sirtuin modulators” (GlaxoSmithKline, LLC, priority 2008, dated 2014):

biological target: T1, SIRT1 (Homo sapiens, UniProt Q96EB6); assay: Mass spectrometry based SIRT1 deacetylation assay (activation); format: biochemical; conditions: 10 nM SIRT1, 0.5 μM peptide substrate, 120 μM βNAD+, 25 min at 25° C.
T1 sequence (Q96EB6 1-747): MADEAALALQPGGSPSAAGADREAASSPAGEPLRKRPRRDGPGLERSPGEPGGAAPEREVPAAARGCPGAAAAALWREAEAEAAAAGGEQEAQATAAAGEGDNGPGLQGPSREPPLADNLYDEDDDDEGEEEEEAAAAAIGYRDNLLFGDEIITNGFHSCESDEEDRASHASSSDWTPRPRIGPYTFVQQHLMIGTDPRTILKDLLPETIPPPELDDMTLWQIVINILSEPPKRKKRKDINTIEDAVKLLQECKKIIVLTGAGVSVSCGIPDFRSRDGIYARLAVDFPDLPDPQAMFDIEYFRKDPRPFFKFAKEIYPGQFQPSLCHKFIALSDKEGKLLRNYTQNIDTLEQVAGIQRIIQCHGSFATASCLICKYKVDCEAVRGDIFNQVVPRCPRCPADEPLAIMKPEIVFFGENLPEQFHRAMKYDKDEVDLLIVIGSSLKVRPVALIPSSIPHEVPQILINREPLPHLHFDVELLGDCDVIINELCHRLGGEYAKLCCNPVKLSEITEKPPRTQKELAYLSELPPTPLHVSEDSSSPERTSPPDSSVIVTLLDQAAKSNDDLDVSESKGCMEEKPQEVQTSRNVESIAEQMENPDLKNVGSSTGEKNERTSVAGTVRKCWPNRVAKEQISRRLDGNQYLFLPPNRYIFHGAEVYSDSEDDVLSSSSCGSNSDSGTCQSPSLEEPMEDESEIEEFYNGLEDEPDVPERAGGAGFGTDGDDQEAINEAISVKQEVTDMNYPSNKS
Summary of the method: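 Recombinant N-His-tagged SIRT1 (E. coli BL21(DE3)), 10 nM, incubated 25 min at 25 °C with 0.5 μM biotin/5TMR-labelled acetyl-p53-derived 20-mer peptide and 120 μM βNAD+ in Tris-acetate pH 8 buffer with DTT and BSA. Formic acid stop; MS quantifies acetylated vs deacetylated peptide. EC1.5 = concentration giving 150% activation versus DMSO.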

Row | Structure (SMILES) | % Fold Act. (percent maximum fold activation) | EC1.5 (concentration of test compound that results in 150% activation of SIRT1)
1 | O=C(Nc1nccs1)c1cccc2ccc(-c3cccc(C(F)(F)F)c3)nc12 [Compound 13] | A (Fold activation >200%) | A (EC1.5<1.0 uM)
2 | O=C(Nc1nc(CN2CCOCC2)cs1)c1cccc2ccc(-c3cccc(OC(F)(F)F)c3)nc12 [Compound 178] | A (Fold activation >200%) | A (EC1.5<1.0 uM)
3 | O=C(Nc1cccnc1)c1cccc2ccc(-c3cccc(N4CCOCC4)c3)nc12 [Compound 110] | A (Fold activation >200%) | A (EC1.5<1.0 uM)
4 | O=C(Nc1cccnc1)c1cccc2cc(C(F)(F)F)c(-c3ccccc3)nc12 [Compound 193] | – | C (EC1.5>25 uM)
5 | O=C(Nc1cccc(OC[C@@H](O)CO)c1)c1cccc2ccc(-c3cccc(C(F)(F)F)c3)nc12 [Compound 207] | A (Fold activation >200%) | A (EC1.5<1.0 uM)
6 | O=C(Nc1cccc(OC[C@H](O)CO)c1)c1cccc2ccc(-c3cccc(C(F)(F)F)c3)nc12 [Compound 217] | A (Fold activation >200%) | A (EC1.5<1.0 uM)
7 | O=S(=O)(Nc1nccs1)Nc1cccc2ccc(-c3cccc(OC(F)(F)F)c3)nc12 [Compound 113] | – | C (EC1.5>25 uM)
8 | O=C(Nc1ccncn1)c1cccc2cnc(-c3cccnc3)nc12 [Compound 296] | – | C (EC1.5>25 uM)
9 | O=C(Nc1nccs1)c1cccc2ccc(-c3ccnc(C(F)F)c3)nc12 [Compound 304] | A (Fold activation >200%) | A (EC1.5<1.0 uM)
10 | FC(F)(F)c1cccc(-c2ccc3cccc(NCc4ccccn4)c3n2)c1 [Compound 136] | – | C (EC1.5>25 uM)
11 | O=C(Nc1cccc2ccc(-c3ccccc3)nc12)c1cscn1 [Compound 2] | A (Fold activation >200%) | B (EC1.5 1-25 uM)
12 | CS(=O)(=O)c1cccc(-c2ccc3cccc(NCc4cccnc4)c3n2)c1 [Compound 163] | – | C (EC1.5>25 uM)
13 | O=C(Nc1cccc2ccc(-c3cccc(OC(F)(F)F)c3)nc12)c1ccccc1 [Compound 19] | – | C (EC1.5>25 uM)
14 | Cc1cccc(NC(=O)c2cccc3ccc(-c4cccc(N5CCOCC5)c4)nc23)n1 [Compound 268] | A (Fold activation >200%) | A (EC1.5<1.0 uM)
15 | O=C(Nc1cccc2ccc(-c3cccc(C(F)(F)F)c3)nc12)c1cncs1 [Compound 220] | A (Fold activation >200%) | A (EC1.5<1.0 uM)
16 | O=C(Nc1cccc2ccc(-c3ccncc3)nc12)c1cscn1 [Compound 77] | A (Fold activation >200%) | A (EC1.5<1.0 uM)
17 | CN(C)c1cccc(C(=O)Nc2cccc3ccc(-c4cccc(C(F)(F)F)c4)nc23)c1 [Compound 215] | B (Fold Activation <200%) | A (EC1.5<1.0 uM)
18 | O=C(Nc1nccs1)c1cccc2cc(C(F)(F)F)c(-c3ccccc3)nc12 [Compound 192] | – | C (EC1.5>25 uM)
19 | FC(F)(F)c1ccc(-c2ccc3cccc(NCc4cccnc4)c3n2)cc1 [Compound 171] | – | C (EC1.5>25 uM)
20 | O=C(Nc1cccc2ccc(-c3cccc(C(F)(F)F)c3)nc12)c1cccc(OCCN2CCOCC2)c1 [Compound 318] | – | C (EC1.5>25 uM)
21 | O=C(NC1CN2CCC1CC2)c1cccc2ccc(-c3cccc(C(F)(F)F)c3)nc12 (centres unmarked) [Compound 88] | – | C (EC1.5>25 uM)
22 | O=C(Nc1cccnc1)c1cccc2ncc(-c3cccc(C(F)(F)F)c3)nc12 [Compound 124] | B (Fold Activation <200%) | A (EC1.5<1.0 uM)

Row | Structure (SMILES) | % Fold Act. (percent maximum fold activation) | EC1.5 (concentration of test compound that results in 150% activation of SIRT1)
23 | O=C(Nc1ncnc2ccc(-c3cccc(C(F)(F)F)c3)nc12)c1ccccn1 [Compound 310] | A (Fold activation >200%) | A (EC1.5<1.0 uM)
24 | O=C(Nc1nccs1)c1cccc2ncc(-c3ccccc3)nc12 [Compound 116] | – | C (EC1.5>25 uM)
25 | O=C(Nc1nccs1)c1c(F)ccc2ccc(-c3cccc(C(F)(F)F)c3)nc12 [Compound 83] | A (Fold activation >200%) | B (EC1.5 1-25 uM)
26 | O=C(Nc1nc(CN2CCOCC2)cs1)c1cccc2ccc(-c3cccc(C(F)(F)F)c3)nc12 [Compound 177] | A (Fold activation >200%) | A (EC1.5<1.0 uM)
27 | O=C(Nc1cccc(OCC(O)CO)c1)c1cccc2ccc(-c3cccc(OC(F)(F)F)c3)nc12 (centres unmarked) [Compound 152] | A (Fold activation >200%) | A (EC1.5<1.0 uM)
28 | FC(F)(F)c1cccc(-c2ccc3cccc(CNc4nccs4)c3n2)c1 [Compound 104] | – | C (EC1.5>25 uM)
29 | Cc1ccc(-c2ccc3cccc(NC(=O)c4cscn4)c3n2)cn1 [Compound 198] | A (Fold activation >200%) | A (EC1.5<1.0 uM)
30 | O=C(Nc1cccc2ccc(-c3cccc(C(F)(F)F)c3)nc12)c1cccs1 [Compound 204] | B (Fold Activation <200%) | B (EC1.5 1-25 uM)
31 | Cc1csc(NC(=O)c2cccc3cnc(-c4cccnc4)nc23)n1 [Compound 295] | – | C (EC1.5>25 uM)
32 | O=C(Nc1ccc(CN2CCCC2)cn1)c1cccc2ccc(-c3cccc(C(F)F)c3)nc12 [Compound 302] | A (Fold activation >200%) | A (EC1.5<1.0 uM)
33 | O=C(Nc1cccc2ccc(-c3cc(F)cc(C(F)(F)F)c3)nc12)c1cscn1 [Compound 169] | – | C (EC1.5>25 uM)
34 | Cc1cccc(-c2ccc3cccc(NC(=O)c4cscn4)c3n2)c1 [Compound 79] | B (Fold Activation <200%) | A (EC1.5<1.0 uM)
35 | O=C(Nc1cccc2ccc(-c3cccc(O)c3)nc12)c1cscn1 [Compound 185] | B (Fold Activation <200%) | B (EC1.5 1-25 uM)
36 | O=C(Nc1cnccn1)c1cccc2ccc(-c3ccccc3)nc12 [Compound 15] | B (Fold Activation <200%) | A (EC1.5<1.0 uM)
37 | N#Cc1cccc(-c2ccc3cccc(NC(=O)c4cscn4)c3n2)c1 [Compound 80] | – | C (EC1.5>25 uM)
38 | Cc1csc(NC(=O)c2cccc3ccc(-c4cccc(C(F)(F)F)c4)nc23)n1 [Compound 27] | A (Fold activation >200%) | A (EC1.5<1.0 uM)
39 | O=C(Nc1cccc2ccc(-c3cccc(N4CCOCC4)c3)nc12)c1cscn1 [Compound 200] | A (Fold activation >200%) | A (EC1.5<1.0 uM)
40 | O=C(Nc1cccc(CN2CCOCC2)n1)c1cccc2ccc(-c3ccnc(C(F)F)c3)nc12 [Compound 306] | A (Fold activation >200%) | A (EC1.5<1.0 uM)
41 | Cn1cnc(C(=O)Nc2cccc3ccc(-c4cccnc4)nc23)c1 [Compound 294] | A (Fold activation >200%) | B (EC1.5 1-25 uM)
42 | O=C(Nc1cccnc1)c1cccc2ccc(-c3ccnc(C(F)F)c3)nc12 [Compound 305] | A (Fold activation >200%) | A (EC1.5<1.0 uM)
43 | Cc1nc(NC(=O)c2cccc3ccc(-c4cccnc4)nc23)sc1C [Compound 226] | A (Fold activation >200%) | B (EC1.5 1-25 uM)
